Measured values from US20240366589A1, “NHE3-BINDING COMPOUNDS AND METHODS FOR INHIBITING PHOSPHATE TRANSPORT” (Ardelyx, Inc., priority 2013, published 2024).

How the values were obtained:
[1] = test system: absorption of sodium from the intestinal lumen; test: Fecal form score (FFS) 16 h after oral dose in rats; format: in vivo, rat; conditions: oral gavage, 16 h post-dose, scale 1-5
Outline: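 Fecal form was scored at 16 h post-dose on a 1–5 wetness scale (normal pellet to liquid stream), with two independent observations averaged across six rats per group. Animals were 8-week-old Sprague-Dawley rats given test compound or water orally in the late afternoon and kept in metabolic cages.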

[2] = test system: absorption of sodium from the intestinal lumen; test: Inhibition of intestinal sodium absorption: urinary sodium (uNa) 16 h after single oral dose in rats; format: in vivo, rat; conditions: oral gavage, 16 h post-dose
Outline: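 Urinary sodium mass over the 16 h after one oral gavage dose, measured by cation-exchange ion chromatography, reported as percent of water-vehicle group; ANOVA plus Dunnett's post hoc test. Groups of six 8-week-old Sprague-Dawley rats, housed individually in metabolic cages post-dose, fed and watered freely.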

[3] = molecular target: T1, Human NHE3 (Homo sapiens, UniProt P48764); test: Cell-based NHE3 activity under prompt conditions (OK cells, BCECF pH recovery), human NHE3; conditions: prompt conditions
T1 construct: expressed in transfected cells; host or cells: Opossum kidney (OK) cells (ATCC), electroporation
T1 sequence (P48764 26-834): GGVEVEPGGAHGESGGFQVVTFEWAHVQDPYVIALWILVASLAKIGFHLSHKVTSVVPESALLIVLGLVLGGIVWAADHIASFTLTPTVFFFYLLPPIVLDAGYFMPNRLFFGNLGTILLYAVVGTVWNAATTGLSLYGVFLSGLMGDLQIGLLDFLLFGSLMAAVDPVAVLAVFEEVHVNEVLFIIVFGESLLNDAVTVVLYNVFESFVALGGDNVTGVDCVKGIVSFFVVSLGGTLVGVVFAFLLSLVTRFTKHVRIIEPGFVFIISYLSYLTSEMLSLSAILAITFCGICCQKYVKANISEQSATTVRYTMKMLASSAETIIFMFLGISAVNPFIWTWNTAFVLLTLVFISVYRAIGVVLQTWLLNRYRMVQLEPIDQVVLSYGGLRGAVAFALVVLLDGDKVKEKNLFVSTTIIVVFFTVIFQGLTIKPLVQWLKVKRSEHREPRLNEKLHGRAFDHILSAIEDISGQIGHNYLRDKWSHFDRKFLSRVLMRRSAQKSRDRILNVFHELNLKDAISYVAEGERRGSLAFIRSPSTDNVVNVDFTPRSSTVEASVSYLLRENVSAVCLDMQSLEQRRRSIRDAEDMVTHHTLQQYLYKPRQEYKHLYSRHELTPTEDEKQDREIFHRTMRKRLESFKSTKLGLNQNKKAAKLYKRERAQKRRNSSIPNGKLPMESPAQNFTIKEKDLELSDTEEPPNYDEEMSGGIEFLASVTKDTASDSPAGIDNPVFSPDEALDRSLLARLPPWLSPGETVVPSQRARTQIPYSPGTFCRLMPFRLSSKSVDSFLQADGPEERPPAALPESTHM
Outline: (§1)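 Fluorometric NHE3 antiport assay in opossum kidney cells carrying rat or human NHE3, using BCECF pH recovery after NH4Cl-prepulse acid loading. pIC50 values derive from initial rates averaged across at least two replicates.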

[4] = molecular target: T2, Rat NHE3 (Rattus norvegicus, UniProt P26433); test: Cell-based NHE3 activity under prompt conditions (OK cells, BCECF pH recovery), rat NHE3; conditions: prompt conditions; for IC50: read-out: Prompt Rat NHE3 pIC50 (converted)
T2 construct: expressed in transfected cells; host or cells: Opossum kidney (OK) cells (ATCC), electroporation
Outline: as §1

[5] = test system: phosphorus and calcium levels in the urine of rats; test: Urinary excretion of phosphate and calcium in rats (16 h overnight urine); format: in vivo, rat; conditions: rats, oral gavage, 16 h post-dose

T2 sequence (P26433 29-831): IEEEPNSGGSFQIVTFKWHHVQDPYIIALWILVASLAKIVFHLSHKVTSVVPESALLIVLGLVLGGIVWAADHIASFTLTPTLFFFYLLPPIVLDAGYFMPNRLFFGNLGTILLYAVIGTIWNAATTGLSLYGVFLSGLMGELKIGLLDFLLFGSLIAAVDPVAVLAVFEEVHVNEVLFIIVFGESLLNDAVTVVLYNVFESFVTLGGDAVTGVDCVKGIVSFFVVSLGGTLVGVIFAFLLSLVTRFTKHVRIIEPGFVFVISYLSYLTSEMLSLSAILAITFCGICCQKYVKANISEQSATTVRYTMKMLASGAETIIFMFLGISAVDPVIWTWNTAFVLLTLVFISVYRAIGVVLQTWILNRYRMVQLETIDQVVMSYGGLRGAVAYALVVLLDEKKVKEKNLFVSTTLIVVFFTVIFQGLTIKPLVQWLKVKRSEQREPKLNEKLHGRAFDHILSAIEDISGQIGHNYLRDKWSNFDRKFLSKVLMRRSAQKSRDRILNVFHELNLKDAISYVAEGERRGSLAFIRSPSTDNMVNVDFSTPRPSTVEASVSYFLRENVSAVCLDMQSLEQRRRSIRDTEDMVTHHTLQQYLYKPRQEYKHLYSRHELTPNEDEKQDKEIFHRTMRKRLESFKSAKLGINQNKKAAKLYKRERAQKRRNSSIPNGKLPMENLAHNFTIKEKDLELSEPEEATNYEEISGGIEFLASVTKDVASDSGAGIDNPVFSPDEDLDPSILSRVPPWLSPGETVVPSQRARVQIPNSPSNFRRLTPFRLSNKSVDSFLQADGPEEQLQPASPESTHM

Row | SMILES | Fecal Form Score average ([1]; dose 10 mg/kg) | Urine Na % of control ([2]; dose 10 mg/kg) [%] | Prompt Human NHE3 pIC50 [3] | Prompt Rat NHE3 pIC50 [4] | Urine P % of control ([5]; dose 10 mg/kg) [%] | Fecal Form Score average ([1]; dose 1 mg/kg) | Fecal Form Score average ([1]; dose 3 mg/kg) | Urine Na % of control ([2]; dose 1 mg/kg) [%] | Urine Na % of control ([2]; dose 3 mg/kg) [%] | Urine P % of control ([5]; dose 1 mg/kg) [%] | Urine P % of control ([5]; dose 3 mg/kg) [%] | IC50 [4] [nM]
1 | O=C(O)CN(CCN(CC(=O)O)CC(=O)NCCOCCOCCOCCNS(=O)(=O)c1ccc(OC2c3ccccc3CC2N2CCCCC2)cc1)CC(=O)NCCOCCOCCOCCNS(=O)(=O)c1ccc(OC2c3ccccc3CC2N2CCCCC2)cc1 (centres unmarked) [compound 49] | 1 | 38 | 7.40 | 7.65 | 77 |  |  |  |  |  |  | 
2 | CN(CC(=O)NCCOCCOCCOCCNS(=O)(=O)c1ccc(OC2c3ccccc3CC2N2CCCCC2)cc1)CC(=O)NCCOCCOCCOCCNS(=O)(=O)c1ccc(OC2c3ccccc3CC2N2CCCCC2)cc1 (centres unmarked) [compound 52] | 1 | 68 | 7.40 | 7.35 | 71 |  |  |  |  |  |  | 
3 | O=C(CCOCCOCCOCCOCCOCCC(=O)NCCOCCOCCOCCNS(=O)(=O)c1ccc(OC2c3ccccc3CC2N2CCCCC2)cc1)NCCOCCOCCOCCNS(=O)(=O)c1ccc(OC2c3ccccc3CC2N2CCCCC2)cc1 (centres unmarked) [compound 53] | 1 | 100 | 7.40 | 7.45 | 59 |  |  |  |  |  |  | 
4 | CN1Cc2c(Cl)cc(Cl)cc2[C@H](c2cccc(S(=O)(=O)NCCOCCOCCOCCNC(=O)c3cc(C(=O)NCCOCCOCCOCCNS(=O)(=O)c4cccc([C@@H]5CN(C)Cc6c(Cl)cc(Cl)cc65)c4)cc(C(=O)NCCOCCOCCOCCNS(=O)(=O)c4cccc([C@@H]5CN(C)Cc6c(Cl)cc(Cl)cc65)c4)c3)c2)C1 [compound 56] | 2 | 15 | 7.00 | 6.90 | 50 |  |  |  |  |  |  | 
5 | CN1Cc2c(Cl)cc(Cl)cc2[C@H](c2cccc(S(=O)(=O)NCCOCCOCCOCCNC(=O)CN(CC(=O)NCCOCCOCCOCCNS(=O)(=O)c3cccc([C@@H]4CN(C)Cc5c(Cl)cc(Cl)cc54)c3)CC(=O)NCCOCCOCCOCCNS(=O)(=O)c3cccc([C@@H]4CN(C)Cc5c(Cl)cc(Cl)cc54)c3)c2)C1 [compound 57] | 3 | 25 | 7.50 | 7.10 | 75 |  |  |  |  |  |  | 
6 | CN1Cc2c(Cl)cc(Cl)cc2[C@H](c2cccc(S(=O)(=O)NCCOCCOCCOCCNC(=O)CN3CCN(CC(=O)NCCOCCOCCOCCNS(=O)(=O)c4cccc([C@@H]5CN(C)Cc6c(Cl)cc(Cl)cc65)c4)CCN(CC(=O)NCCOCCOCCOCCNS(=O)(=O)c4cccc([C@@H]5CN(C)Cc6c(Cl)cc(Cl)cc65)c4)CCN(CC(=O)NCCOCCOCCOCCNS(=O)(=O)c4cccc([C@@H]5CN(C)Cc6c(Cl)cc(Cl)cc65)c4)CC3)c2)C1 [compound 58] | 1 | 82 | 7.30 | 6.30 | 68 |  |  |  |  |  |  | 
7 | NCCOCCOCCNS(=O)(=O)c1ccc(O[C@H]2c3ccccc3C[C@@H]2N2CCCCC2)cc1 [compound 60] | 1 | 67 | 7.10 | 6.35 | 92 |  |  |  |  |  |  | 
8 | CN1Cc2c(Cl)cc(Cl)cc2[C@H](c2cccc(S(=O)(=O)NCCOCCOCCOCCNC(=O)CC(O)(CC(=O)NCCOCCOCCOCCNS(=O)(=O)c3cccc([C@@H]4CN(C)Cc5c(Cl)cc(Cl)cc54)c3)C(=O)NCCOCCOCCOCCNS(=O)(=O)c3cccc([C@@H]4CN(C)Cc5c(Cl)cc(Cl)cc54)c3)c2)C1 [compound 61] | 3 | 21 | 7.80 | 7.00 | 67 | 1 | 1 | 93 | 50 | 96 | 70 | 
9 | NCCOCCOCCNS(=O)(=O)c1ccc(O[C@H]2c3cc(Cl)cc(Cl)c3C[C@@H]2N2CCCCC2)cc1 [compound 62] | 1 | 121 | 7.25 | <5.00 | 77 |  |  |  |  |  |  | 
10 | CN1Cc2c(Cl)cc(Cl)cc2[C@H](c2cccc(S(=O)(=O)NCCOCCOCCOCCNC(=O)NCCCN(CCCNC(=O)NCCOCCOCCOCCNS(=O)(=O)c3cccc([C@@H]4CN(C)Cc5c(Cl)cc(Cl)cc54)c3)CCCNC(=O)NCCOCCOCCOCCNS(=O)(=O)c3cccc([C@@H]4CN(C)Cc5c(Cl)cc(Cl)cc54)c3)c2)C1 [compound 64] | 1 | 34 | 8.20 | 7.40 | 66 |  |  |  |  |  |  | 
11 | O=C(O)CN(CCN(CC(=O)O)CC(=O)NCCOCCOCCNS(=O)(=O)c1ccc(O[C@H]2c3ccccc3C[C@@H]2N2CCCCC2)cc1)CC(=O)NCCOCCOCCNS(=O)(=O)c1ccc(O[C@H]2c3ccccc3C[C@@H]2N2CCCCC2)cc1 [compound 65] | 1 | 93 | 8.00 |  | 85 |  |  |  |  |  |  | 1.41
12 | O=C(NCCCCNC(=O)NCCOCCOCCNS(=O)(=O)c1ccc(O[C@H]2c3ccccc3C[C@@H]2N2CCCCC2)cc1)NCCOCCOCCNS(=O)(=O)c1ccc(O[C@H]2c3ccccc3C[C@@H]2N2CCCCC2)cc1 [compound 66] | 1 | 35 | 8.35 |  | 30 |  |  |  |  |  |  | 4.47
13 | CN1Cc2c(Cl)cc(Cl)cc2[C@H](c2cccc(S(=O)(=O)NCCOCCOCCOCCNC(=O)CN(CCN(CC(=O)O)CC(=O)NCCOCCOCCOCCNS(=O)(=O)c3cccc([C@@H]4CN(C)Cc5c(Cl)cc(Cl)cc54)c3)CC(=O)O)c2)C1 [compound 67] | 2 | 4 | 8.70 | 8.00 | 67 |  |  |  |  |  |  | 
14 | O=C(NCCCCNC(=O)NCCOCCOCCNS(=O)(=O)c1ccc(O[C@H]2c3cc(Cl)cc(Cl)c3C[C@@H]2N2CCCCC2)cc1)NCCOCCOCCNS(=O)(=O)c1ccc(O[C@H]2c3cc(Cl)cc(Cl)c3C[C@@H]2N2CCCCC2)cc1 [compound 68] | 1 | 70 | <5.00 | <5.00 | 97 |  |  |  |  |  |  | 
15 | CN1Cc2c(Cl)cc(Cl)cc2[C@H](c2cccc(S(=O)(=O)NCCOCCOCCOCCNC(=O)CN3CCN(c4nc(N5CCN(CC(=O)NCCOCCOCCOCCNS(=O)(=O)c6cccc([C@@H]7CN(C)Cc8c(Cl)cc(Cl)cc87)c6)CC5)nc(N5CCN(CC(=O)NCCOCCOCCOCCNS(=O)(=O)c6cccc([C@@H]7CN(C)Cc8c(Cl)cc(Cl)cc87)c6)CC5)n4)CC3)c2)C1 [compound 69] | 1 | 82 | 6.70 | 6.60 | 78 |  |  |  |  |  |  | 
16 | CN1Cc2c(Cl)cc(Cl)cc2[C@H](c2cccc(S(=O)(=O)NCCOCCOCCOCCNC(=O)NCCN3CCN(c4nc(N5CCN(CCNC(=O)NCCOCCOCCOCCNS(=O)(=O)c6cccc([C@@H]7CN(C)Cc8c(Cl)cc(Cl)cc87)c6)CC5)nc(N5CCN(CCNC(=O)NCCOCCOCCOCCNS(=O)(=O)c6cccc([C@@H]7CN(C)Cc8c(Cl)cc(Cl)cc87)c6)CC5)n4)CC3)c2)C1 [compound 70] | 1 | 96 | 7.20 | 6.70 | 83 |  |  |  |  |  |  | 
